{"source": "patent US20110104159A1", "about": "“COMPOSITIONS AND METHODS FOR TREATING, CONTROLLING, REDUCING, AMELIORATING, OR PREVENTING ALLERGY” (priority 2006, published 2011)", "key": {"leukocytes (PMN)": {"test_system": "leukocytes (PMN)", "test": "Leukocytes (PMN) measurement in aqueous humor", "type": "in vivo, Rabbit", "details": "for PMN in aqueous humor at the second paracentesis, Mean: group mean; for PMN in aqueous humor at the second paracentesis: individual eye sample, listed as BOL", "protocol": "Each rabbit was placed in a restraint device and tagged with the alphanumeric code. The formulations were instilled (50 μl) into the conjunctival sac of both eyes 180, 120, 90 and 30 min before the first paracentesis; then 15, 30, 90 min after the first paracentesis. To perform the first paracentesis the animals were anaesthetized by intravenous injection of 5 mg/kg Zoletil® (Virbac; 2.5 mg/kg tiletamine HCl and 2.5 mg/kg zolazepam HCl) and one drop of local anesthetic (Novesina®, Novartis) was administered to the eye. Anterior chamber paracentesis was performed with a 26 G needle attached to a tuberculin syringe; the needle was introduced into the anterior chamber through the cornea, taking care not to damage the tissues. Two hours after the first paracentesis, the animals were sacrificed with 0.4 ml Tanax® (Intervet International B.V.) and the second paracentesis was performed. About 100 μl of aqueous humor were removed at the second paracentesis. Aqueous humor was immediately split in four aliquots and stored at −80° C. until analysis. Then both eyes were enucleated and the iris-ciliary body was carefully excised, placed in polypropylene tubes, and stored at −80° C. until analysis.\nFor the determination of the number of leukocytes we used a haemocytometer (Improved Neubauer Chamber; Brigth-line, Hausser Scientific) and a Polyvar 2 microscope (Reichert-Jung)."}, "[1]": {"test_system": "ovalbumin-sensitized guinea pigs", "test": "Active anaphylaxis in the guinea pig: conjunctival symptoms after OVA challenge", "type": "in vivo", "details": "0.4% eye drops, 30 μl/eye 45 min before OVA", "protocol": "Male Dunkin-Hartley guinea pigs (250-300 g) were purchased from Charles River (Calco, Italy). Animal procedures followed the guidelines of the University of Bologna Animal Care and Use Committee and conformed to the Association for Research in Vision and Ophthalmology (ARVO) resolution on the use of animals in research.\n(§1) Male Dunkin-Hartley guinea pigs were actively immunized by i.p. injection of 200 μg OVA in 2 ml saline with 40 mg aluminum hydroxide (positive control) or saline alone (negative control), as previously reported. […] Negative controls received saline alone.\n(§2) Conjunctival clinical symptoms were rated blind on both eyes using the following scale: 0, no symptoms; 1, slight conjunctival redness with or without tears; 2, mild conjunctival redness with tears and mild chemosis; 3, mild conjunctival redness with tears and moderate chemosis; 4, severe conjunctival redness with tears and partial lid eversion; 5, severe conjunctival redness with tears and lids more than half closed. The animals were euthanized 24 h after OVA challenge by i.p. injection of Tanax® (3 ml/kg; Hoechst AG, Frankfurt-am-Main, Germany) and the conjunctivas were carefully excised and each was divided into two samples for subsequent investigations. […] The number of eosinophils in each field was counted under light microscopy (×500 magnification). In the other sample eosinophil peroxidase activity was measured."}, "eosinophil peroxidase": {"test_system": "eosinophil peroxidase", "test": "Eosinophil peroxidase assay in guinea pig conjunctiva", "type": "in vivo", "details": "0.4% eye drops; 24 h after antigen challenge", "protocol": "as §1\nas §2, with “closed.” for “closed. The animals were euthanized 24 h after OVA challenge by i.p. injection of Tanax® (3 ml/kg; Hoechst AG, Frankfurt-am-Main, Germany) and the conjunctivas were carefully excised and each was divided into two samples for subsequent investigations.”\nEosinophil peroxidase was assayed as previously reported in conjunctival samples obtained as above described. […] Absorbance was measured using a spectrophotometer (JASCO V-530, Jasco, UK) at 490 nm. […] Eosinophil peroxidase activity was measured according to the method of Strath et al., which is based on the oxidation of o-phenylenediamine by eosinophil peroxidase in the presence of hydrogen peroxide. One unit corresponds to 1 mmol of hydrogen peroxide decomposed for […], and the results were expressed as eosinophil peroxidase levels (mU of enzyme/mg wet tissue)."}, "[2]": {"test_system": "primary human conjunctival epithelial cells (HConEpiC)", "test": "IL-4 and TNF-α-induced cytokine release in HConEpiC (Luminex)", "type": "cell-based", "details": "24 h", "protocol": "(§3) Primary human conjunctival epithelial cells (HConEpiC) were seeded in two 24-well plates in EpiLife medium+1% Human Corneal Growth Supplement (HCGS; contains bovine pituitary extract, bovine insulin, hydrocortisone, bovine transferrin and mouse epidermal growth factor) at 2×10^4 cells/well. When the cells were confluent (4-5 days after seeding), they were incubated in EpiLife GF medium without glucocorticoids (EpiLife basic medium supplemented with 50 μg/ml bovine pituitary extract, 5 μg/ml bovine insulin and 5 ng/ml mouse epidermal growth factor) for 18 h. […] Culture medium was collected. Cytokine analysis was performed on the culture medium using 2 separate cytokine/chemokine Luminex kits (Kit 1: G-CSF, GM-CSF, IL-6, IL-8, IP-10, MCP-1, RANTES; Kit 2: eotaxin-3, CTACK). ICAM-1 expression was determined in cell lysates using a Luminex kit.\n(§4) Median fluorescence intensity (MFI) was used to obtain the concentration of each cytokine and ICAM-1 in pg/ml based on the standard curve of each cytokine assayed by Luminex using the StatLIA software. ICAM-1 expression was expressed as pg/mg protein. All data were expressed as mean±SEM. Statistical analysis was performed using a two-way ANOVA-Contrast test with Factor 1 being drug and Factor 2 being dose (JMP 8 software, SAS Institute, Cary, N.C.). P<0.05 was considered statistically significant. Data were analyzed either directly or after Box-Cox transformations (9, 10)."}, "ICAM-1": {"test_system": "ICAM-1", "test": "IL-4 and TNF-α-induced ICAM-1 expression in HConEpiC cell lysates (Luminex)", "type": "cell-based, human", "details": "all doses 10-1000 nM, 24 h", "protocol": "as §3\nas §4, with “P<0.05 was considered statistically significant.” left out"}, "normotensive rabbits": {"test_system": "normotensive rabbits", "details": "topical eye drops, normotensive rabbits [27]; cited from earlier work"}, "[3]": {"test_system": "murine thymocyte line S49", "details": "murine thymocyte line S49 [26]; cited from earlier work"}}, "note": "Several values for one entry are separate records, joined by “and”; a condition that tells them apart may be missing. Identical values can stand only once.", "data": [{"smiles": "Cc1ccc2c(NC[C@](O)(CC(C)(C)c3cc(F)cc4c3OCC4)C(F)(F)F)cccc2n1", "note": "[BOL-303242-X, (R)-1,1,1-Trifluoro-4-(5-fluoro-2,3-dihydrobenzofuran-7-yl)-4-methyl-2-{[(2-methyl-5-quinolyl)amino]methyl}pentan-2-ol]", "values": [{"measurement": "PMN in aqueous humor at the second paracentesis, Mean", "setting": "leukocytes (PMN); 0.1% topical", "value": 28.333, "unit": "number/μl"}, {"measurement": "PMN in aqueous humor at the second paracentesis", "setting": "leukocytes (PMN); 0.1% topical", "value": "20 number/μl (4×) and 40 number/μl and 50 number/μl"}, {"measurement": "PMN in aqueous humor at the second paracentesis, Mean", "setting": "leukocytes (PMN); 0.5% topical", "value": 21.250, "unit": "number/μl"}, {"measurement": "PMN in aqueous humor at the second paracentesis", "setting": "leukocytes (PMN); 0.5% topical", "value": "40 number/μl (2×) and 20 number/μl (3×) and 10 number/μl (3×)"}, {"measurement": "PMN in aqueous humor at the second paracentesis, Mean", "setting": "leukocytes (PMN); 1% topical", "value": 28.750, "unit": "number/μl"}, {"measurement": "PMN in aqueous humor at the second paracentesis", "setting": "leukocytes (PMN); 1% topical", "value": "30 number/μl (3×) and 20 number/μl (3×) and 40 number/μl (2×)"}, {"measurement": "Conjunctival symptoms (swelling of the eyelids and chemosis), early phase", "setting": "[1]; 1 h after challenge", "value": "significantly reduced"}, {"measurement": "Severity of conjunctival symptoms, late phase", "setting": "[1]; 6 h after challenge", "value": "significant reduction in the severity of conjunctival symptoms"}, {"measurement": "Conjunctival eosinophil peroxidase activity", "setting": "eosinophil peroxidase", "value": "noteworthy reduction"}, {"measurement": "Eotaxin-3 level induced by IL-4 plus TNF-α", "setting": "[2]; 100 nM", "value": "significant elevation of eotaxin-3"}, {"measurement": "Eotaxin-3 level induced by IL-4 plus TNF-α", "setting": "[2]; 10, 30, 300 and 1000 nM", "value": "no effect"}, {"measurement": "IL-8 level induced by IL-4 plus TNF-α", "setting": "[2]; 10-1000 nM", "value": "no effect"}, {"measurement": "IP-10 level induced by IL-4 plus TNF-α", "setting": "[2]; 30, 100, 300 and 1000 nM", "value": "significantly inhibited"}, {"measurement": "IL-6 level induced by IL-4 plus TNF-α", "setting": "[2]; 300 and 1000 nM", "value": "significantly reduced"}, {"measurement": "CTACK level induced by IL-4 plus TNF-α", "setting": "[2]; all doses 10-1000 nM", "value": "significant reduction"}, {"measurement": "G-CSF level induced by IL-4 plus TNF-α", "setting": "[2]; all doses 10-1000 nM", "value": "significantly elevated"}, {"measurement": "GM-CSF level induced by IL-4 plus TNF-α", "setting": "[2]; all doses 10-1000 nM", "value": "significant reduction"}, {"measurement": "MCP-1 level induced by IL-4 plus TNF-α", "setting": "[2]; all doses 10-1000 nM", "value": "significant reduction"}, {"measurement": "RANTES level induced by IL-4 plus TNF-α", "setting": "[2]; all doses 10-1000 nM", "value": "significant reduction"}, {"measurement": "IL-4 plus TNF-α-induced ICAM-1 expression in cell lysates", "setting": "ICAM-1", "value": "significantly decreased"}, {"measurement": "Ability to increase intraocular pressure compared to dexamethasone", "setting": "normotensive rabbits", "value": "reduced ability to increase intraocular pressure"}, {"measurement": "Induction of apoptosis in thymocytes", "setting": "[3]", "value": "does not induce apoptosis"}]}]}
